Source: US10131652B2, “Pyrimidinyloxy benzene derivatives as herbicides” (E. I. DU PONT DE NEMOURS AND COMPANY, priority 2014, dated 2018)

Columns and labels:
Type in all cases: in vivo
soybean (Glycine max) = assay: Test D pre-/postemergence plant response; settings: Postemergence; for Soybean plant response rating: 31 g ai/ha, scale 0 to 100 (0 no effect, 100 complete control); for Plant response rating, Soybean: scale 0 to 100, 0 no effect, 100 complete control
In short: (§1)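 Ratings were visual, 0 = no effect to 100 = complete control, taken against untreated controls after 13 to 15 days in a greenhouse. Chemicals, formulated in non-phytotoxic surfactant-containing solvent, went onto soil (loam/sand) at planting for preemergence, or onto 1- to 4-leaf plants (2–18 cm) for postemergence.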

[1] = system: waterhemp (common waterhemp, Amaranthus rudis); assay: Test D pre-/postemergence plant response; settings: Postemergence; for Waterhemp plant response rating: 31 g ai/ha, scale 0 to 100 (0 no effect, 100 complete control); for Plant response rating, Waterhemp: scale 0 to 100, 0 no effect, 100 complete control
In short: as §1

[2] = system: oilseed rape (Brassica napus); assay: Test D pre-/postemergence plant response; settings: Postemergence; for Oilseed Rape plant response rating: 31 g ai/ha, scale 0 to 100 (0 no effect, 100 complete control); for Plant response rating, Oilseed Rape: scale 0 to 100, 0 no effect, 100 complete control
In short: as §1

corn (Zea mays) = assay: Test D pre-/postemergence plant response; settings: Postemergence; for Corn plant response rating: scale 0 to 100 (0 no effect, 100 complete control); for Plant response rating, Corn: scale 0 to 100, 0 no effect, 100 complete control
In short: as §1

[3] = system: giant foxtail (Setaria faberii); assay: Test D pre-/postemergence plant response; settings: Postemergence; for Foxtail, Giant plant response rating: scale 0 to 100 (0 no effect, 100 complete control); for Plant response rating, Foxtail, Giant: scale 0 to 100, 0 no effect, 100 complete control
In short: as §1

[4] = system: Italian ryegrass (Lolium multiflorum); assay: Test D pre-/postemergence plant response; settings: Postemergence; for Ryegrass, Italian plant response rating: 31 g ai/ha, scale 0 to 100 (0 no effect, 100 complete control); for Plant response rating, Ryegrass, Italian: scale 0 to 100, 0 no effect, 100 complete control
In short: as §1

[5] = system: pigweed (Amaranthus retroflexus); assay: Test D pre-/postemergence plant response; settings: Postemergence; for Pigweed plant response rating: 31 g ai/ha, scale 0 to 100 (0 no effect, 100 complete control); for Plant response rating, Pigweed: scale 0 to 100, 0 no effect, 100 complete control
In short: as §1

[6] = system: yellow nutsedge (Cyperus esculentus); assay: Test D pre-/postemergence plant response; settings: Postemergence; for Nutsedge, Yellow plant response rating: 31 g ai/ha, scale 0 to 100 (0 no effect, 100 complete control); for Plant response rating, Nutsedge, Yellow: scale 0 to 100, 0 no effect, 100 complete control
In short: as §1

[7] = system: ragweed (common ragweed, Ambrosia elatior); assay: Test D pre-/postemergence plant response; settings: Postemergence; for Ragweed plant response rating: 31 g ai/ha, scale 0 to 100 (0 no effect, 100 complete control); for Plant response rating, Ragweed: scale 0 to 100, 0 no effect, 100 complete control
In short: as §1

[8] = system: morningglory (Ipomoea coccinea); assay: Test D pre-/postemergence plant response; settings: Postemergence; for Morningglory plant response rating: 31 g ai/ha, scale 0 to 100 (0 no effect, 100 complete control); for Plant response rating, Morningglory: scale 0 to 100, 0 no effect, 100 complete control
In short: as §1

[9] = system: barnyardgrass (Echinochloa crus-galli); assay: Test D pre-/postemergence plant response; settings: Postemergence; for Barnyardgrass plant response rating: scale 0 to 100 (0 no effect, 100 complete control); for Plant response rating, Barnyardgrass: scale 0 to 100, 0 no effect, 100 complete control
In short: as §1

[10] = system: blackgrass (Alopecurus myosuroides); assay: Test B postemergence plant response
In short: (§2)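 Visual injury ratings, 0 = no effect to 100 = complete control, versus untreated controls approximately 10 days after postemergence spraying in greenhouse. Plants were at one- to two-leaf stage, 2 to 10 cm tall, in loam soil/sand blend; a dash denotes no result.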

[11] = system: galium (catchweed bedstraw, Galium aparine); assay: Test B postemergence plant response
In short: as §2

[12] = system: chickweed (common chickweed, Stellaria media); assay: Test D postemergence plant response; settings: for Chickweed plant response rating: scale 0 to 100 (0 no effect, 100 complete control); for Plant response rating, Chickweed: scale 0 to 100, 0 no effect, 100 complete control
In short: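 Visual 0–100 rating vs controls (0 = no effect, 100 = complete control), scored 13–15 d after postemergence spray. Plants 1- to 4-leaf stage (2–18 cm), potted in peat/vermiculite mix, kept in greenhouse.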

[13] = 125 g ai/ha, postemergence, 0 to 100 scale, 0 no effect, 100 complete control
[14] = Postemergence, 31 g ai/ha, 0 to 100 scale (0 no effect, 100 complete control)
[15] = Postemergence, 500 g ai/ha, 0 to 100 scale (0 no effect, 100 complete control)

CC(F)(F)c1cc(-c2ccccc2Oc2ncc(Br)cn2)no1 [Compound 149]
Soybean plant response rating (soybean (Glycine max)): 40 | Plant response rating, Soybean (soybean (Glycine max); 62 g ai/ha): 65 | Plant response rating, Soybean (soybean (Glycine max); 125 g ai/ha): 65 | Waterhemp plant response rating [1]: 80 | Plant response rating, Waterhemp ([1]; 62 g ai/ha): 95 | Plant response rating, Waterhemp ([1]; 125 g ai/ha): 100 | Oilseed Rape plant response rating [2]: 30 | Plant response rating, Oilseed Rape ([2]; 62 g ai/ha): 60 | Plant response rating, Oilseed Rape ([2]; 125 g ai/ha): 85 | Corn plant response rating (corn (Zea mays); 16 g ai/ha): 0 | Corn plant response rating (corn (Zea mays); 31 g ai/ha): 5 | Plant response rating, Corn (corn (Zea mays); 62 g ai/ha): 5 | Plant response rating, Corn (corn (Zea mays); 125 g ai/ha): 5 | Foxtail, Giant plant response rating ([3]; 16 g ai/ha): 5 | Foxtail, Giant plant response rating ([3]; 31 g ai/ha): 10 | Plant response rating, Foxtail, Giant ([3]; 62 g ai/ha): 10 | Plant response rating, Foxtail, Giant ([3]; 125 g ai/ha): 30 | Ryegrass, Italian plant response rating [4]: 0 | Plant response rating, Ryegrass, Italian ([4]; 62 g ai/ha): 0 | Plant response rating, Ryegrass, Italian ([4]; 125 g ai/ha): 0 | Pigweed plant response rating [5]: 85 | Plant response rating, Pigweed ([5]; 62 g ai/ha): 95 | Plant response rating, Pigweed ([5]; 125 g ai/ha): 90 | Nutsedge, Yellow plant response rating [6]: 0 | Plant response rating, Nutsedge, Yellow ([6]; 62 g ai/ha): 5 | Plant response rating, Nutsedge, Yellow ([6]; 125 g ai/ha): 5 | Ragweed plant response rating [7]: 30 | Plant response rating, Ragweed ([7]; 62 g ai/ha): 30 | Plant response rating, Ragweed ([7]; 125 g ai/ha): 45 | Morningglory plant response rating [8]: 60 | Plant response rating, Morningglory ([8]; 62 g ai/ha): 70 | Plant response rating, Morningglory ([8]; 125 g ai/ha): 80 | Barnyardgrass plant response rating ([9]; 16 g ai/ha): 5 | Barnyardgrass plant response rating ([9]; 31 g ai/ha): 5 | Plant response rating, Barnyardgrass ([9]; 62 g ai/ha): 5 | Plant response rating, Barnyardgrass ([9]; 125 g ai/ha): 10 | Plant response rating, Blackgrass [10, 13]: 60 | Plant response rating, Blackgrass [10, 14]: 10 | Plant response rating, Galium [11, 13]: 90 | Plant response rating, Galium [11, 14]: 90 | Chickweed plant response rating ([12]; 16 g ai/ha): 5 | Chickweed plant response rating ([12]; 31 g ai/ha): 30 | Plant response rating, Chickweed ([12]; 62 g ai/ha): 30 | Plant response rating, Chickweed ([12]; 125 g ai/ha): 60

Cc1cc(-c2ccccc2Oc2ncc(Cl)cn2)no1 [Compound 153]
Soybean plant response rating (soybean (Glycine max)): 40 | Plant response rating, Soybean (soybean (Glycine max); 62 g ai/ha): 70 | Plant response rating, Soybean (soybean (Glycine max); 125 g ai/ha): 90 | Waterhemp plant response rating [1]: 10 | Plant response rating, Waterhemp ([1]; 62 g ai/ha): 35 | Plant response rating, Waterhemp ([1]; 125 g ai/ha): 65 | Oilseed Rape plant response rating [2]: 40 | Plant response rating, Oilseed Rape ([2]; 62 g ai/ha): 60 | Plant response rating, Oilseed Rape ([2]; 125 g ai/ha): 85 | Corn plant response rating (corn (Zea mays); 16 g ai/ha): 0 | Corn plant response rating (corn (Zea mays); 31 g ai/ha): 0 | Plant response rating, Corn (corn (Zea mays); 62 g ai/ha): 5 | Plant response rating, Corn (corn (Zea mays); 125 g ai/ha): 5 | Foxtail, Giant plant response rating ([3]; 16 g ai/ha): 0 | Foxtail, Giant plant response rating ([3]; 31 g ai/ha): 0 | Plant response rating, Foxtail, Giant ([3]; 62 g ai/ha): 5 | Plant response rating, Foxtail, Giant ([3]; 125 g ai/ha): 5 | Ryegrass, Italian plant response rating [4]: 0 | Plant response rating, Ryegrass, Italian ([4]; 62 g ai/ha): 0 | Plant response rating, Ryegrass, Italian ([4]; 125 g ai/ha): 0 | Pigweed plant response rating [5]: 20 | Plant response rating, Pigweed ([5]; 62 g ai/ha): 40 | Plant response rating, Pigweed ([5]; 125 g ai/ha): 70 | Nutsedge, Yellow plant response rating [6]: 0 | Plant response rating, Nutsedge, Yellow ([6]; 62 g ai/ha): 5 | Plant response rating, Nutsedge, Yellow ([6]; 125 g ai/ha): 5 | Ragweed plant response rating [7]: 10 | Plant response rating, Ragweed ([7]; 62 g ai/ha): 25 | Plant response rating, Ragweed ([7]; 125 g ai/ha): 55 | Morningglory plant response rating [8]: 5 | Plant response rating, Morningglory ([8]; 62 g ai/ha): 15 | Plant response rating, Morningglory ([8]; 125 g ai/ha): 25 | Barnyardgrass plant response rating ([9]; 16 g ai/ha): 5 | Barnyardgrass plant response rating ([9]; 31 g ai/ha): 5 | Plant response rating, Barnyardgrass ([9]; 62 g ai/ha): 5 | Plant response rating, Barnyardgrass ([9]; 125 g ai/ha): 5 | Plant response rating, Blackgrass [10, 13]: 40 | Plant response rating, Blackgrass [10, 15]: 90 | Plant response rating, Galium [11, 13]: 90 | Plant response rating, Galium [11, 15]: 100 | Chickweed plant response rating ([12]; 16 g ai/ha): 20 | Chickweed plant response rating ([12]; 31 g ai/ha): 20 | Plant response rating, Chickweed ([12]; 62 g ai/ha): 20 | Plant response rating, Chickweed ([12]; 125 g ai/ha): 25

FC(F)(F)c1cc(-c2c(I)cccc2Oc2ncc(Cl)cn2)no1 [Compound 156]
Plant response rating (scale 0 to 100), Soybean (soybean (Glycine max); 8 g ai/ha): 5 | Soybean plant response rating (soybean (Glycine max)): 25 | Plant response rating, Soybean (soybean (Glycine max); 62 g ai/ha): 30 | Plant response rating (scale 0 to 100), Waterhemp ([1]; 8 g ai/ha): 5 | Waterhemp plant response rating [1]: 70 | Plant response rating, Waterhemp ([1]; 62 g ai/ha): 90 | Plant response rating (scale 0 to 100), Oilseed Rape ([2]; 8 g ai/ha): 5 | Oilseed Rape plant response rating [2]: 40 | Plant response rating, Oilseed Rape ([2]; 62 g ai/ha): 45 | Plant response rating (scale 0 to 100), Corn (corn (Zea mays); 8 g ai/ha): 0 | Corn plant response rating (corn (Zea mays); 16 g ai/ha): 5 | Corn plant response rating (corn (Zea mays); 31 g ai/ha): 5 | Plant response rating, Corn (corn (Zea mays); 62 g ai/ha): 5 | Plant response rating (scale 0 to 100), Foxtail, Giant ([3]; 8 g ai/ha): 0 | Foxtail, Giant plant response rating ([3]; 16 g ai/ha): 5 | Foxtail, Giant plant response rating ([3]; 31 g ai/ha): 10 | Plant response rating, Foxtail, Giant ([3]; 62 g ai/ha): 35 | Plant response rating (scale 0 to 100), Ryegrass, Italian ([4]; 8 g ai/ha): 0 | Ryegrass, Italian plant response rating [4]: 0 | Plant response rating, Ryegrass, Italian ([4]; 62 g ai/ha): 0 | Plant response rating (scale 0 to 100), Pigweed ([5]; 8 g ai/ha): 15 | Pigweed plant response rating [5]: 60 | Plant response rating, Pigweed ([5]; 62 g ai/ha): 75 | Plant response rating (scale 0 to 100), Nutsedge, Yellow ([6]; 8 g ai/ha): 0 | Nutsedge, Yellow plant response rating [6]: 5 | Plant response rating, Nutsedge, Yellow ([6]; 62 g ai/ha): 5 | Plant response rating (scale 0 to 100), Ragweed ([7]; 8 g ai/ha): 0 | Ragweed plant response rating [7]: 10 | Plant response rating, Ragweed ([7]; 62 g ai/ha): 15 | Plant response rating (scale 0 to 100), Morningglory ([8]; 8 g ai/ha): 5 | Morningglory plant response rating [8]: 15 | Plant response rating, Morningglory ([8]; 62 g ai/ha): 65 | Plant response rating (scale 0 to 100), Barnyardgrass ([9]; 8 g ai/ha): 0 | Barnyardgrass plant response rating ([9]; 16 g ai/ha): 0 | Barnyardgrass plant response rating ([9]; 31 g ai/ha): 0 | Plant response rating, Barnyardgrass ([9]; 62 g ai/ha): 5 | Plant response rating, Blackgrass [10, 13]: 20 | Plant response rating, Blackgrass [10, 15]: 40 | Plant response rating, Galium [11, 13]: 90 | Plant response rating, Galium [11, 15]: 100 | Plant response rating (scale 0 to 100), Chickweed ([12]; 8 g ai/ha): 5 | Chickweed plant response rating ([12]; 16 g ai/ha): 5 | Chickweed plant response rating ([12]; 31 g ai/ha): 45 | Plant response rating, Chickweed ([12]; 62 g ai/ha): 70
